Test results as given in patent US8071625B2, “Certain chemical entities, compositions, and methods” (Cytokinetics, Inc., priority 2006, dated 2011).

The compounds below were run against T1, crosslinked smooth muscle actomyosin (chicken gizzard smooth muscle myosin subfragment-1 crosslinked to cardiac or skeletal actin) (Gallus gallus, UniProt P10587) (assay: Lead optimization pyruvate kinase/horseradish peroxidase/pyruvate oxidase-coupled ATPase assay (compound dose response)). Details: read-out: IC50 Arithmetic Mean.
T1 construct: chicken gizzard smooth muscle myosin subfragment-1; from tissue; host or cells: chicken gizzard
Type: biochemical
Outline: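 IC50 is the midpoint of a 4-parameter dose–response fit of Amplex Red fluorescence (480/615 nm). Buffer was 12 mM potassium PIPES pH 7.00 at 22 °C with 100 mM KCl, 2 mM MgCl2, 0.15 mM ATP and 2 mM phosphate, with PK/pyruvate oxidase/HRP coupling. Enzyme: smooth muscle myosin S1 crosslinked to cardiac or skeletal actin, dosed empirically by activity.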

Compound	IC50
CCc1ccc(NC(=O)OCC2(C(=O)NCc3cccc(Cl)c3)CCN(C(=O)CN)CC2)cc1 [[(1-(2-aminoacetyl)-4-{N-[(3-chlorophenyl)methyl]carbamoyl}(4-piperidyl))methoxy]-N-(4-ethylphenyl)carboxamide]	729 nM
CCc1ccc(NC(=O)OCC2(C(=O)NCc3cccc(F)c3C)CCN(C(=O)CN)CC2)cc1 [[(1-(2-aminoacetyl)-4-{N-[(3-fluoro-2-methylphenyl)methyl]carbamoyl}(4-piperidyl))methoxy]-N-(4-ethylphenyl)carboxamide]	81 nM
Cc1c(F)cccc1CNC(=O)C1(COC(=O)Nc2ccc(C(F)(F)F)cc2)CCN(C(=O)CN)CC1 [[(1-(2-aminoacetyl)-4-{N-[(3-fluoro-2-methylphenyl)methyl]carbamoyl}(4-piperidyl))methoxy]-N-[4-(trifluoromethyl)phenyl]carboxamide]	412 nM
CCc1ccc(NC(=O)OCC2(C(=O)NCc3ncc[nH]3)CCN(C(=O)CNC(=O)OC(C)(C)C)CC2)cc1 [[(1-{2-[(tert-butoxy)carbonylamino]acetyl}-4-[N-(imidazol-2-ylmethyl)carbamoyl](4-piperidyl))methoxy]-N-(4-ethylphenyl)carboxamide]	1770 nM
CCc1ccc(NC(=O)OCC2(C(=O)NCc3ccc(F)cc3Cl)CCN(C(=O)CNC(=O)OC(C)(C)C)CC2)cc1 [[(1-{2-[(tert-butoxy)carbonylamino]acetyl}-4-{N-[(2-chloro-4-fluorophenyl)methyl]carbamoyl}(4-piperidyl))methoxy]-N-(4-ethylphenyl)carboxamide]	1080 nM
CC(C)(C)OC(=O)NCC(=O)N1CCC(COC(=O)Nc2ccc(C(F)(F)F)cc2)(C(=O)NCc2cccc(Cl)c2F)CC1 [[(1-{2-[(tert-butoxy)carbonylamino]acetyl}-4-{N-[(3-chloro-2-fluorophenyl)methyl]carbamoyl}(4-piperidyl))methoxy]-N-[4-(trifluoromethyl)phenyl]carboxamide]	6560 nM
Cc1c(Cl)cccc1CNC(=O)C1(COC(=O)Nc2ccc(C(F)(F)F)cc2)CCN(C(=O)CNC(=O)OC(C)(C)C)CC1 [[(1-{2-[(tert-butoxy)carbonylamino]acetyl}-4-{N-[(3-chloro-2-methylphenyl)methyl]carbamoyl}(4-piperidyl))methoxy]-N-[4-(trifluoromethyl)phenyl]carboxamide]	5640 nM
Cc1c(F)cccc1CNC(=O)C1(COC(=O)Nc2ccc(C(F)(F)F)cc2)CCN(C(=O)CNC(=O)OC(C)(C)C)CC1 [[(1-{2-[(tert-butoxy)carbonylamino]acetyl}-4-{N-[(3-fluoro-2-methylphenyl)methyl]carbamoyl}(4-piperidyl))methoxy]-N-[4-(trifluoromethyl)phenyl]carboxamide]	3180 nM
CCc1ccc(NC(=O)OCC2(C(=O)NCc3cccc(F)c3)CCN(C(=O)CNC(=O)OC(C)(C)C)CC2)cc1 [[(1-{2-[(tert-butoxy)carbonylamino]acetyl}-4-{N-[(3-fluorophenyl)methyl]carbamoyl}(4-piperidyl))methoxy]-N-(4-ethylphenyl)carboxamide]	8240 nM
CCc1ccc(NC(=O)OCC2(C(=O)NCc3ccc(Cl)cc3)CCN(C(=O)CNC(=O)OC(C)(C)C)CC2)cc1 [[(1-{2-[(tert-butoxy)carbonylamino]acetyl}-4-{N-[(4-chlorophenyl)methyl]carbamoyl}(4-piperidyl))methoxy]-N-(4-ethylphenyl)carboxamide]	14500 nM
CCc1ccc(NC(=O)OCC2(C(=O)NCc3ccc(F)cc3)CCN(C(=O)CNC(=O)OC(C)(C)C)CC2)cc1 [[(1-{2-[(tert-butoxy)carbonylamino]acetyl}-4-{N-[(4-fluorophenyl)methyl]carbamoyl}(4-piperidyl))methoxy]-N-(4-ethylphenyl)carboxamide]	10100 nM
CCc1ccc(NC(=O)OCC2(C(=O)NCc3cccc(Cl)c3Cl)CCN(C(=O)CNC(=O)OC(C)(C)C)CC2)cc1 [[(4-{N-[(2,3-dichlorophenyl)methyl]carbamoyl}-1-{2-[(tert-butoxy)carbonylamino]acetyl}(4-piperidyl))methoxy]-N-(4-ethylphenyl)carboxamide]	313 nM
CC(C)(C)OC(=O)NCC(=O)N1CCC(COC(=O)Nc2ccc(C(F)(F)F)cc2)(C(=O)NCc2cccc(Cl)c2Cl)CC1 [[(4-{N-[(2,3-dichlorophenyl)methyl]carbamoyl}-1-{2-[(tert-butoxy)carbonylamino]acetyl}(4-piperidyl))methoxy]-N-[4-(trifluoromethyl)phenyl]carboxamide]	3720 nM
CCc1ccc(NC(=O)OCC2(C(=O)NCc3cccc(F)c3F)CCN(C(=O)CNC(=O)OC(C)(C)C)CC2)cc1 [[(4-{N-[(2,3-difluorophenyl)methyl]carbamoyl}-1-{2-[(tert-butoxy)carbonylamino]acetyl}(4-piperidyl))methoxy]-N-(4-ethylphenyl)carboxamide]	1590 nM

Next, values leading:

IC50	Compound
1030 nM	CCc1ccc(NC(=O)OCC2(C(=O)NCc3cccc(F)c3)CCN(C(=O)CN)CC2)cc1 [[(1-(2-aminoacetyl)-4-{N-[(3-fluorophenyl)methyl]carbamoyl}(4-piperidyl))methoxy]-N-(4-ethylphenyl)carboxamide]
2980 nM	CCc1ccc(NC(=O)OCC2(C(=O)NCc3ncccc3C)CCN(C(=O)CN)CC2)cc1 [[(1-(2-aminoacetyl)-4-{N-[(3-methyl(2-pyridyl))methyl]carbamoyl}(4-piperidyl))methoxy]-N-(4-ethylphenyl)carboxamide]
262 nM	CCc1ccc(NC(=O)OCC2(C(=O)NCc3ccc(Cl)cc3F)CCN(C(=O)CN)CC2)cc1 [[(1-(2-aminoacetyl)-4-{N-[(4-chloro-2-fluorophenyl)methyl]carbamoyl}(4-piperidyl))methoxy]-N-(4-ethylphenyl)carboxamide]
145 nM	CCc1ccc(NC(=O)OCC2(C(=O)NCc3ccc(Cl)cc3C)CCN(C(=O)CN)CC2)cc1 [[(1-(2-aminoacetyl)-4-{N-[(4-chloro-2-methylphenyl)methyl]carbamoyl}(4-piperidyl))methoxy]-N-(4-ethylphenyl)carboxamide]
1280 nM	CCc1ccc(NC(=O)OCC2(C(=O)NCc3ccc(Cl)cc3)CCN(C(=O)CN)CC2)cc1 [[(1-(2-aminoacetyl)-4-{N-[(4-chlorophenyl)methyl]carbamoyl}(4-piperidyl))methoxy]-N-(4-ethylphenyl)carboxamide]
1100 nM	CCc1ccc(NC(=O)OCC2(C(=O)NCc3ccc(F)cc3)CCN(C(=O)CN)CC2)cc1 [[(1-(2-aminoacetyl)-4-{N-[(4-fluorophenyl)methyl]carbamoyl}(4-piperidyl))methoxy]-N-(4-ethylphenyl)carboxamide]
6810 nM	CCc1ccc(NC(=O)OC[C@@H](C)N(C)C(=O)NCc2ccccc2Cl)cc1 [[(2R)-2-({[(2-chlorophenyl)methyl]amino}-N-methylcarbonylamino)propoxy]-N-(4-ethylphenyl)carboxamide]
168 nM	CCc1ccc(NC(=O)OCC2(C(=O)NCc3ccccc3Br)CCN(C(=O)CNC)CC2)cc1 [[(4-{N-[(2-bromophenyl)methyl]carbamoyl}-1-[2-(methylamino)acetyl](4-piperidyl))methoxy]-N-(4-ethylphenyl)carboxamide]
11700 nM	CCc1ccc(NC(=O)OCC2CN(C(=O)NCc3ccccc3Cl)CCO2)cc1 (centres unmarked) [[(4-{N-[(2-chlorophenyl)methyl]carbamoyl}morpholin-2-yl)methoxy]-N-(4-ethylphenyl)carboxamide]
